From PubChem BioAssay (NCI) come the findings set out here.

Test systems include K-562 leukemia; SK-MEL-28 melanoma; HS 578T breast; HT29 colon; SK-OV-3 ovarian; HCT-116 colon; U251 CNS; MALME-3M melanoma; A549 NSCLC; OVCAR-3 ovarian.
Assay in all cases: growth of human tumour cells (NCI), 48 h

Each structure is given as a SMILES string.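 Tested at 5 concentrations; 48 h exposure; 96-well plates; endpoints linearly interpolated, else capped at highest concentration. At the GI50, growth is halved. At the TGI there is no net growth.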

`O=C(Oc1cccnc1)c1cccnc1Nc1ccnc(C(F)(F)F)c1`: the GI50 was 5180 nM with K-562 leukemia; 38.1 µM with SK-MEL-28 melanoma; 32.2 µM in the test on HS 578T breast; 30.8 µM in the test on HT29 colon; > 100 µM in the test with SK-OV-3 ovarian; 1760 nM in the test with HCT-116 colon. Besides, the GI50 in the test on U251 CNS was 14.3 µM; with MALME-3M melanoma, 13 µM; with A549 NSCLC, > 100 µM; in the test on OVCAR-3 ovarian it was 18.3 µM. In addition, the TGI in the test with K-562 leukemia is > 100 µM; with SK-MEL-28 melanoma it was > 100 µM; in the test with HS 578T breast it was > 100 µM; in the test with HT29 colon, > 100 µM; in the test on SK-OV-3 ovarian, > 100 µM; in the test with HCT-116 colon, 3.71 µM. The TGI was 47.3 µM in the test on U251 CNS, 69.8 µM in the test on MALME-3M melanoma, > 100 µM in the test with A549 NSCLC and 62.2 µM with OVCAR-3 ovarian.
In the case of `CCC1(O)C(=O)OCc2c1cc1n(c2=O)Cc2cc3ccccc3nc2-1` (stereo not given), the TGI in the test on K-562 leukemia was > 100 µM; in the test with SK-MEL-28 melanoma it was 18.4 µM; in the test on HS 578T breast it was > 100 µM; with HT29 colon, 0.394 µM; with SK-OV-3 ovarian it was 7.11 µM; with HCT-116 colon, 0.614 µM. In addition, the TGI in the test on U251 CNS stood at 0.57 µM; in the test on MALME-3M melanoma, 11.8 µM; with A549 NSCLC, 0.334 µM; with OVCAR-3 ovarian, 2.72 µM.
For the compound `COc1ccc(-c2noc(C(=O)O)c2-c2cc(OC)c(OC)c(OC)c2)cc1`, the GI50 in the test on K-562 leukemia was 609 nM; with SK-MEL-28 melanoma it was 37.3 µM; in the test with HS 578T breast, 3.38 µM; with HT29 colon, 1.5 µM; in the test with SK-OV-3 ovarian, 3.9 µM; in the test on HCT-116 colon, 752 nM. In addition, the GI50 was 4.65 µM with U251 CNS, 8.02 µM in the test on MALME-3M melanoma, 4.75 µM in the test on A549 NSCLC and 1.71 µM in the test with OVCAR-3 ovarian. Moreover, the TGI with K-562 leukemia, with SK-MEL-28 melanoma, with HS 578T breast, with HT29 colon, in the test with SK-OV-3 ovarian and in the test with HCT-116 colon was > 100 µM in each case. The TGI in the test with U251 CNS, in the test on MALME-3M melanoma, in the test on A549 NSCLC and in the test with OVCAR-3 ovarian was > 100 µM each time.
